How the values were obtained:
[1] = target: α5-GABAA receptor (α5, β3, γ2 subunits) (Homo sapiens (Human), UniProt P18507+P31644); assay: Whole cell patch clamp, inverse agonist efficacy in HEK293 cells expressing α5-GABAA receptor; format: cell-based; settings: HEK293, drug 100 nM, GABA 0.05 μM, −60 mV; read-out: Compound inverse agonist efficacy %
Method in brief: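 Stable HEK293 line co-expressing human α5, β3, γ2 subunits; whole-cell patch clamp at −60 mV, inward current evoked by 0.05 μM GABA, then compound at 100 nM in GABA solution applied. Effect derived from leak, pre- and post-drug GABA currents.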

human MDR1 P-gp = assay: MDCKII-MDR1 permeability; format: in vitro ADME, canine; settings: dog
Method: Brain permeability of compounds was assessed by measuring compound efflux in Madin-Darby canine kidney-II (MDCKII) cells transfected with the human MDR1 gene (Drug metabolism and disposition, 2008, 36(2), 268-275).
The active transport mechanism was mediated by uptake and efflux transporters expressed on MDCKII-MDR1 cells, primarily by overexpressed human MDR1 P-gp.
MDCKII-MDR1 cells were seeded on the polycarbonate microporous membrane of Transwell™ at a density of (0.85 to 5.0)×10^6/cm^2, and used for experiments when the cells reached complete confluence (3 to 5 d). […] At the beginning and end of the experiment, samples were collected from the transport solution side. After incubation for a certain period of time (1.5 hours), samples were also collected from the buffer side, and the concentration was determined by HPLC-MS/MS or scintillation counting.

Chain of α5-GABAA receptor (α5, β3, γ2 subunits) (P31644 32-462): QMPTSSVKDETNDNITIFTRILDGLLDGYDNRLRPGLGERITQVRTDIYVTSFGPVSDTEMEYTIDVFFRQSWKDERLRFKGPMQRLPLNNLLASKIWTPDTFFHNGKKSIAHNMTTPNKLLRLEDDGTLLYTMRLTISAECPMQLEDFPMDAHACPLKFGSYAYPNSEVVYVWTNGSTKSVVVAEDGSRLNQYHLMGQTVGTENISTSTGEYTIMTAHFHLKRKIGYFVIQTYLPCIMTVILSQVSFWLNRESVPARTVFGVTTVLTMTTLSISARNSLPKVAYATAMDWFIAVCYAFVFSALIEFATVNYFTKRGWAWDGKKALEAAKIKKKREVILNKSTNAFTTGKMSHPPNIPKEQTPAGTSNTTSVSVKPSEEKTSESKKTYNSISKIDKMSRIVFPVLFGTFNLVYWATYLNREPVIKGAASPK
Chain of α5-GABAA receptor (α5, β3, γ2 subunits) (P28472 26-473 partner): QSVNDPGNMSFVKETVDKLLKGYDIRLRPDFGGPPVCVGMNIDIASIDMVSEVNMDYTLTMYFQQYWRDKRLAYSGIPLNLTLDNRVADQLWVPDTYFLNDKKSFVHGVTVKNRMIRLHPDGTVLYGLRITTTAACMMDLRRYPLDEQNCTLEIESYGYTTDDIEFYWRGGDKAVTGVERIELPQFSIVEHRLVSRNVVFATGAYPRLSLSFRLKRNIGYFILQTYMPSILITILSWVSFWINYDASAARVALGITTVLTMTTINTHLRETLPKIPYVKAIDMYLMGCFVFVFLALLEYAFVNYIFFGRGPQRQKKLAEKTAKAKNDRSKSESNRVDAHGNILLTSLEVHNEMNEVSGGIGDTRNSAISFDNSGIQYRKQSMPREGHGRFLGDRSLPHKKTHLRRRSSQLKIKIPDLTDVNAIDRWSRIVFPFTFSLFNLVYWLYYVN
Chain of α5-GABAA receptor (α5, β3, γ2 subunits) (P18507 other isoform, or with tags, fused parts or gaps): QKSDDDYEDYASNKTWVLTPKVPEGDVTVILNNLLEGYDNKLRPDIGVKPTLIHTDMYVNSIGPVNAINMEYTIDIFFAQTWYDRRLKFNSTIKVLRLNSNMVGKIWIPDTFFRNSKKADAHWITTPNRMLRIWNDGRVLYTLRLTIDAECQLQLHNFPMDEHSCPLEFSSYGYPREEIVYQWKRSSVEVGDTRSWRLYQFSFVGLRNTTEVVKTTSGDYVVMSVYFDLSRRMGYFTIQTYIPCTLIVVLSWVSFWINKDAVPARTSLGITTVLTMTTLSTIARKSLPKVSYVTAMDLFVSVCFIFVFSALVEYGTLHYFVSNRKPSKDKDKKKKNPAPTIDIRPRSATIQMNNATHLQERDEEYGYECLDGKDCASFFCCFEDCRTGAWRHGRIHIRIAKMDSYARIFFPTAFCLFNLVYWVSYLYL

inhibition at 0.1 µM [1]: 42.5%
efflux ratio at 1.5 h (human MDR1 P-gp; MDCK-MDR1, pH 7.4, Papp (B-A)/Papp (A-B), read-out: Efflux ratio (ER)): 7.52
Papp A→B at 1.5 h (human MDR1 P-gp; MDCK-MDR1, pH 7.4, 37° C., 1.5 hours): 4.16 ×10⁻⁶ cm/s
Compound: Cc1nnn(-c2ccc(C(F)F)cc2)c1COc1ccc(N2CC(=O)NC(C)C2)nn1 (stereo not drawn) [Example 6, 4-(6-((1-(4-(Difluoromethyl)phenyl)-4-methyl-1H-1,2,3-triazol-5-yl)methoxy)pyridazin-3-yl)-6-methylpiperazin-2-one]

From US20250136581A1, “SUBSTITUTED TRIAZOLE DERIVATIVE, PREPARATION METHOD THEREFOR, PHARMACEUTICAL COMPOSITION THEREOF, AND USE THEREOF” (SHANGHAI SIMR BIOTECHNOLOGY CO., LTD., priority 2021, published 2025)
